Key:
[1] = biological target: T1, HCV polymerase (NS5B) type 1a (Hepatitis C virus genotype 1a, UniProt P26664); test: Assay of enzyme (HCV polymerase) inhibitory activity, type 1a enzyme; format: biochemical, HCV type 1a (cloned from the blood of patients)
T1 construct: made in house; host or cells: Escherichia coli (by the 'similar method' of the 1b enzyme)
Summary of the method: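 IC50 values derive from radioactivity of newly synthesized RNA with versus without test compound. The enzyme was C-terminally truncated type 1a NS5B, 1.5 μg/ml, run 60 min at 25° C with 3H-UTP-labelled nucleotides.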

[2] = biological target: T2, HCV polymerase (NS5B) type 1b (Hepatitis C virus genotype 1b, UniProt P26663); test: Assay of enzyme (HCV polymerase) inhibitory activity, type 1b enzyme; format: biochemical, HCV BK strain (type 1b)
T2 construct: a region encoding NS5B (J Virol 1991 March, 65(3), 1105-13, 544 amino acids after deletion of 47 amino acids on the C-terminal); 6xHis (C); made in house; host or cells: Escherichia coli
Summary of the method: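 Polymerase activity was followed as radiolabelled UTP incorporation by E. coli-expressed, His-tagged NS5B of HCV type 1b lacking its last 47 residues. Conditions: 2 μM UTP, 50 μM other NTPs, Mg2+ buffer at pH 7.5, 25 °C for 60 min. Inhibition relative to compound-free reactions gave IC50.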

[3] = HCV polymerase inhibitory activity IC50, 1a, type 1a enzyme
[4] = HCV polymerase inhibitory activity IC50, 1b, type 1b enzyme
[5] = HCV polymerase inhibitory activity (IC50), 1a, type 1a enzyme 1.5 μg/ml, 25° C., 60 min
[6] = HCV polymerase inhibitory activity (IC50), 1b, type 1b enzyme 0.5 μg/ml, 25° C., 60 min

Structure (SMILES) | IC50 [1, 3] | IC50 [2, 4] | IC50 [1, 5] | IC50 [2, 6]
CN(C)C(=O)c1nncc2sc(N3CCN(S(=O)(=O)c4ccc(OC(F)(F)F)cc4)[C@@H](C(=O)NCc4ccc(OC(F)(F)F)cc4)C3)nc12 [Example 930, 2-[(R)-4-(4-trifluoromethoxy-benzenesulfonyl)-3-(4-trifluoromethoxy-benzylcarbamoyl)-piperazin-1-yl]-thiazolo[4,5-d]pyridazine-4-carboxylic acid dimethylamide] | < 100 nM | < 100 nM | – | –
CCCc1ccc(CNC(=O)[C@H]2CN(c3cnc(C(=O)O)cn3)CCN2S(=O)(=O)c2ccc(OC(F)(F)F)cc2)c(Cl)c1 [Example 474, (R)-3-(2-chloro-4-propyl-benzylcarbamoyl)-4-(4-trifluoromethoxy-benzenesulfonyl)-3,4,5,6-tetrahydro-2H-[1,2′]bipyrazinyl-5′-carboxylic acid] | – | – | < 100 nM | < 100 nM
CCC(F)(F)c1ccc(CNC(=O)[C@H]2CN(c3cnc4cncnc4n3)CCN2S(=O)(=O)c2ccc(-c3ccccc3O)cc2)cc1 [Example 724, (R)-1-(2′-hydroxy-biphenyl-4-sulfonyl)-4-pteridin-7-yl-piperazine-2-carboxylic acid 4-(1,1-difluoro-propyl)-benzylamide] | < 100 nM | < 100 nM | – | –
CCCc1ccc(CNC(=O)[C@H]2CN(c3cnc4cnccc4n3)CCN2S(=O)(=O)c2ccc(-c3cccc(OCC(=O)O)c3)cc2)cc1 [Example 779, {4′-[(R)-2-(4-propyl-benzylcarbamoyl)-4-pyrido[3,4-b]pyrazin-2-yl-piperazine-1-sulfonyl]-biphenyl-3-yloxy}-acetic acid] | < 100 nM | < 100 nM | – | –
CC(C)(C)c1ccc(CNC(=O)[C@H]2CN(c3nc4nc[nH]c(=O)c4s3)CCN2S(=O)(=O)c2ccc(OC(F)(F)F)cc2)cc1 [Example 602, (R)-4-(7-oxo-6,7-dihydro-thiazolo[4,5-d]pyrimidin-2-yl)-1-(4-trifluoromethoxy-benzenesulfonyl)-piperazine-2-carboxylic acid 4-tert-butyl-benzylamide] | – | – | < 100 nM | < 100 nM
CC(=O)NCCC(=O)N1CCN(S(=O)(=O)c2ccc(C(F)(F)F)cc2)[C@@H](C(=O)NCc2ccc(C(C)C)cc2)C1 [Example 188, (R)-4-(3-acetylamino-propionyl)-1-(4-trifluoromethyl-benzenesulfonyl)-piperazine-2-carboxylic acid 4-isopropyl-benzylamide] | – | – | 100 to 1000 nM | 100 to 1000 nM
Cc1nc(N2CCN(S(=O)(=O)c3ccc(C(F)(F)F)cc3)[C@@H](C(=O)NCc3ccc(C(C)C)cc3)C2)sc1C(=O)NS(C)(=O)=O [Example 446, (R)-4-(5-methanesulfonylaminocarbonyl-4-methyl-thiazol-2-yl)-1-(4-trifluoromethyl-benzenesulfonyl)-piperazine-2-carboxylic acid 4-isopropyl-benzylamide] | – | – | 100 to 1000 nM | < 100 nM
CC(=O)N1CCN(S(=O)(=O)c2ccc(C(C)C)cc2)[C@@H](C(=O)NCCc2ccc(Cl)cc2)C1 [Example 138, (R)-4-acetyl-1-(4-isopropyl-benzenesulfonyl)-piperazine-2-carboxylic acid [2-(4-chloro-phenyl)-ethyl]-amide] | – | – | > 1000 nM | > 1000 nM
CCCc1ncc(S(=O)(=O)N2CCN(C(C)=O)C[C@@H]2C(=O)NCc2ccc(C(C)C)cc2)s1 [Example 375, (R)-4-acetyl-1-(2-propyl-thiazole-5-sulfonyl)-piperazine-2-carboxylic acid 4-isopropyl-benzylamide] | – | – | < 100 nM | < 100 nM
O=C(NCc1ccc(OC(F)(F)F)cc1)[C@H]1CN(c2ccc3ncccc3n2)CCN1S(=O)(=O)c1ccc(OC(F)(F)F)cc1 [Example 793, (R)-4-[1,5]naphthyridin-2-yl-1-(4-trifluoromethoxy-benzenesulfonyl)-piperazine-2-carboxylic acid 4-trifluoromethoxy-benzylamide] | < 100 nM | < 100 nM | – | –
